Data: article PMC5766608, “Target engagement imaging of PARP inhibitors in small-cell lung cancer” (Nature Communications, 2018)
“Also recorded” adds a separate entry of the source.

Key:
JHU-LX22 cells = test: Cytotoxicity, Alamar Blue assay; assay type: cell-based, human; details: 24-96 h
Description: […]. Cells were plated in 96-well plates (black, clear-bottom, Corning Incorporated) at a density of 5,000 cells/well and allowed them to attach for 24 h. All compounds were prepared as 10 mM stock solutions in DMSO and further diluted in media. Cells were treated with 0, 2, 5, and 10 µM (final solutions containing 1% DMSO) of each compound for 24, 48, 72 and 96 h. Then, media was removed and Alamar Blue reagent was added to each well. Plates were incubated at 37 °C for 4 h under protection from direct light. Fluorescence was read (bottom-read mode) using an excitation wavelength of 570 nm and an emission wavelength of 585 nm on a SpectraMax M5 microplate reader (Molecular Devices, Sunnyvale, CA, USA). The average reading values were analyzed by subtracting the background readings (wells with Alamar Blue but without cells) and compared against the untreated controls of each plate (defined as 100% viability) to determine the percentage of living cells. The experiment was carried out in three biological replicates with four parallels of each compound.
Supplementary Figure 9 | In vitro toxicity of the tested PARP inhibitors and imaging tracers on JHU-LX22 cells. (a) Assessment of viable cell population during flow cytometry after a 2 hour incubation time of several PARP inhibitors at concentrations between 0 and 5 µM. (b) Cell viability determination using Alamar Blue assays. Cells were incubated with 0, 0.2, 2, 5 or 10 µM of each compound for 24, 48, 72 or 96 h and cell viability was assessed using the Alamar Blue assay. (c) IC values derived from Alamar Blue assays at 72 h and 96 h.
Viability data represent means from three independent experiments, each with four parallels of each sample. Error bars represent the standard error (SEM). […]

TNKS2 = molecular target: T1, TNKS2 (Homo sapiens, UniProt Q9H2K2); test: PARP family enzyme activity inhibition screening (BPS Bioscience); assay type: biochemical; details: 100 nM inhibitor
T1 construct: purchased BPS Bioscience, San Diego, CA
T1 sequence (Q9H2K2 1-1166): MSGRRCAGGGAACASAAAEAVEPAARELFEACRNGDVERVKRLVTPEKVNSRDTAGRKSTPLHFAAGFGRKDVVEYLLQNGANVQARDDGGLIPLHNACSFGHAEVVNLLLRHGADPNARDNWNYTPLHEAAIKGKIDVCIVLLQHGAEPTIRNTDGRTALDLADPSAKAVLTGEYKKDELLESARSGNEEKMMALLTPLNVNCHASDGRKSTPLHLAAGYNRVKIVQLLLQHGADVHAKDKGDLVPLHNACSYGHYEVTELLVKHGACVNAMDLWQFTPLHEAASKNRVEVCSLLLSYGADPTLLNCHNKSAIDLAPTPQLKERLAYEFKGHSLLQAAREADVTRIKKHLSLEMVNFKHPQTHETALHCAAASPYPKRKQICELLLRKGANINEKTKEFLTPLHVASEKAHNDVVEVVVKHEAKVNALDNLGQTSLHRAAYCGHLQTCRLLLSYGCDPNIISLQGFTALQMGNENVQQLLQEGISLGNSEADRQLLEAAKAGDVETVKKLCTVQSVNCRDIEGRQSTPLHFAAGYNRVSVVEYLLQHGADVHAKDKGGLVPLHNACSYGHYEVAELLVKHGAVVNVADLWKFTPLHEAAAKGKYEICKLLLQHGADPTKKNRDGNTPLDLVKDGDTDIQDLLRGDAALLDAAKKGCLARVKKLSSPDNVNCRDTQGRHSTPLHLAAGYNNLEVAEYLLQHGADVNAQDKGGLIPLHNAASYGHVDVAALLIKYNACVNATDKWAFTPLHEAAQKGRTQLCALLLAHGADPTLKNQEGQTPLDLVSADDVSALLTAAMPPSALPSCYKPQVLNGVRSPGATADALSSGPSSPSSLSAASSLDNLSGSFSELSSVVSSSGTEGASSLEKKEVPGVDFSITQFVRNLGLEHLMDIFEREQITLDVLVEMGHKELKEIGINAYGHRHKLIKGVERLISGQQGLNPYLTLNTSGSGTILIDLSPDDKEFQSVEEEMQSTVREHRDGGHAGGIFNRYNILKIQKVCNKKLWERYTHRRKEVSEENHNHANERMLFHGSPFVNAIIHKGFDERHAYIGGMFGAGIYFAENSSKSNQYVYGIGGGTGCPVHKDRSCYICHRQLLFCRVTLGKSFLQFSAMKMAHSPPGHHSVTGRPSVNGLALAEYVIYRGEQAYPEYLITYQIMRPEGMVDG
Description: Fig. 1 Properties of PARP inhibitors. a Structures of 5 clinical therapeutic PARP inhibitors and the 2 PARP imaging agents. b Heatmap visualizing enzymatic activity screening of 10 small molecules against 12 PARP enzymes at 100 nM concentration (for additional concentrations, see Supplementary Fig. 1)
Assay was performed by BPS Bioscience, San Diego, CA. 100 µM DMSO solutions of each inhibitor were provided, and the assay was conducted after dilution to 100, 50, or 10 nM. […] Data was reported by BPS as % Enzyme Activity. Triplicates were combined to get a mean ± SD, and these were grouped and plotted onto a heatmap using Prism 7.
Supplementary Figure 1 | PARP enzyme family binding assays at additional concentrations.
histone substrate and biotin-labeled NAD+ at 100 nM (Fig. 1b), 50 nM (left) and 10 nM (right) for
each inhibitor and each enzyme.

Row | inhibition at 0.1 µM (TNKS2) | SMILES | Effect on JHU-LX22 cell viability, in words (JHU-LX22 cells) | Inhibition of TNKS2 enzyme activity (TNKS2)
1 | – | O=C(c1ccc(F)cc1)N1CCN(C(=O)c2cc(Cc3n[nH]c(=O)c4ccccc34)ccc2F)CC1 [^19F-PARPi] | very similar effects on JHU-LX22 cell viability as other inhibitors; also recorded: very similar effects on JHU-LX22 cell viability as olaparib | ≤ 5%
2 | – | Cn1ncnc1[C@H]1c2n[nH]c(=O)c3cc(F)cc(c23)N[C@@H]1c1ccc(F)cc1 [Talazoparib, (8S,9R)-5-Fluoro-8-(4-fluorophenyl)-9-(1-methyl-1H-1,2,4-triazol-5-yl)-2,7,8,9-tetrahydro-3H-pyrido[4,3,2-de]phthalazin-3-one] | most sensitive | exhibited inhibition
3 | ≤ 5% | CC1=CC(C)=[N+]2C1=Cc1ccc(CCC(=O)N3CCN(C(=O)c4cc(Cc5n[nH]c(=O)c6ccccc56)ccc4F)CC3)n1[B-]2(F)F [PARPi-FL] | very similar effects on JHU-LX22 cell viability as other inhibitors; also recorded: very similar effects on JHU-LX22 cell viability as olaparib | –
